# Laboratory results taken from ChEMBL document CHEMBL5329214, “4-Arylidene curcumin derivatives in vitro inhibit α-Synuclein aggregation and disaggregate the preformed fibril” (Bioorg Med Chem, 2023).
# The source made the active and inactive calls. The calls are words filed in the database; no cut-off is given here.
# What was measured:
# Alpha-synuclein [1] = target: T1, Alpha-synuclein (Homo sapiens, UniProt P37840); test: Inhibition of alpha-Synuclein (unknown origin) aggregation incubated for 72 hrs by ThT-based fluorescence analysis
# Alpha-synuclein [2] = target: T1, Alpha-synuclein; test: Inhibition of alpha-Synuclein (unknown origin) aggregation assessed as alteration in typical alpha-Syn "S" shaped aggregation kinetics by measuring reduction in oligomeric nuclei in lag phase at 30 uM measured for 86 hrs by ThT-based fluorescence analysis
# Alpha-synuclein [3] = target: T1, Alpha-synuclein; test: Inhibition of alpha-Synuclein (unknown origin) aggregation assessed as alteration in typical alpha-Syn "S" shaped aggregation kinetics by measuring reduction in aggregation rate in elongation phase at 30 uM measured for 86 hrs by ThT-based fluorescence analysis
# Alpha-synuclein [4] = target: T1, Alpha-synuclein; test: Inhibition of alpha-Synuclein (unknown origin) aggregation assessed as alteration in typical alpha-Syn "S" shaped aggregation kinetics by measuring weakening of primary nucleation in lag phase at 30 uM measured for 86 hrs by ThT-based fluorescence analysis
IC50 (Alpha-synuclein [1]),inhibition (Alpha-synuclein [2]),inhibition (Alpha-synuclein [3]),inhibition (Alpha-synuclein [4]),SMILES
3.3 µM,–,–,–,COc1cc(/C=C/C(=O)CC(=O)/C=C/c2ccc(O)c(OC)c2)ccc1O [CURCUMIN]
4.39 µM,Active,Active,Active,COc1cc(/C=C/C(=O)C(=Cc2ccc(O)cc2)C(=O)/C=C/c2ccc(O)c(OC)c2)ccc1O
